# Activity calls are given as the source filed them. The calls are words filed in the database; no cut-off is given here.
# How the values were obtained:
# WI-38 = test: Cytotoxicity against human WI38 cells after 48 hrs by MTT assay; type: cell-based; details: WI-38, 48 h
# HCT-8 = test: Cytotoxicity against human HCT8 cells after 48 hrs by MTT assay; type: functional, cell-based; details: HCT-8, 48 h
# HeLa [1] = test: Cytotoxicity against human HeLa cells after 48 hrs by MTT assay; type: functional, cell-based
# A549 = test: Cytotoxicity against human A549 cells after 48 hrs by MTT assay; type: functional, cell-based; details: A549, 48 h
# HepG2 = test: Cytotoxicity against human HepG2 cells after 48 hrs by MTT assay; type: functional, cell-based; details: HepG2, 48 h
# HeLa [2] = test: Induction of microtubule disruption in human HeLa cells assessed as short microtubule at 1 uM after 6 hrs by DAPI staining based immunofluorescence microscopic analysis; type: cell-based
# HeLa [3] = test: Induction of microtubule disruption in human HeLa cells assessed as dense microtubule at 1 uM after 6 hrs by DAPI staining based immunofluorescence microscopic analysis; type: cell-based
# HeLa [4] = test: Induction of microtubule disruption in human HeLa cells assessed as round microtubule at 1 uM after 6 hrs by DAPI staining based immunofluorescence microscopic analysis; type: cell-based
# HeLa [5] = test: Cell cycel arrest in human HeLa cells assessed as increase in accumulation at G2/M phase after 24 hrs by propidium iodide staining based assay; type: functional
# HeLa [6] = test: Induction of apoptosis in human HeLa cells assessed as nuclear fragmentation at 0.1 to 1 uM after 24 hrs by Hoechst 33258 staining based fluorescence microscopic analysis; type: functional, cell-based
# HeLa [7] = test: Induction of microtubule disruption in human HeLa cells assessed as cell shrinkage after 6 hrs by DAPI staining based immunofluorescence microscopic analysis
# HeLa [8] = test: Induction of microtubule disruption in human HeLa cells assessed as short microtubule after 6 hrs by DAPI staining based immunofluorescence microscopic analysis; type: cell-based
# HeLa [9] = test: Induction of apoptosis in human HeLa cells assessed as upregulation of p53 expression by Western blot analysis; type: functional, cell-based
# HeLa [10] = test: Induction of microtubule disruption in human HeLa cells assessed as nuclear condensation after 6 hrs by DAPI staining based immunofluorescence microscopic analysis; type: cell-based
# HeLa [11] = test: Cell cycel arrest in human HeLa cells assessed as decrease in accumulation at G1 phase after 24 hrs by propidium iodide staining based assay; type: functional
# HeLa [12] = test: Inhibition of tubulin polymerization in human HeLa cells assessed as reduction in polymerized tubulin expression at 2 uM after 24 hrs by chemiluminescence assay; type: cell-based
# HeLa [13] = test: Induction of apoptosis in human HeLa cells assessed as morphological changes at 0.1 to 1 uM after 24 hrs by Hoechst 33258 staining based fluorescence microscopic analysis; type: functional, cell-based
# HeLa [14] = test: Upregulation of CDC2 expression in human HeLa cells after 24 hrs by Western blot analysis; type: functional, cell-based
# HeLa [15] = test: Upregulation of cyclin B1 expression in human HeLa cells after 24 hrs by Western blot analysis; type: functional, cell-based
# [16] = biological target: Cyclin-dependent kinase 1 (Homo sapiens) (UniProt P06493); test: Reduction in phosphorylated CDC2 level in human HeLa cells after 24 hrs by Western blot analysis; type: cell-based
# Cyclin-dependent kinase 1 (Homo sapiens), sequence (P06493 whole entry, looked up): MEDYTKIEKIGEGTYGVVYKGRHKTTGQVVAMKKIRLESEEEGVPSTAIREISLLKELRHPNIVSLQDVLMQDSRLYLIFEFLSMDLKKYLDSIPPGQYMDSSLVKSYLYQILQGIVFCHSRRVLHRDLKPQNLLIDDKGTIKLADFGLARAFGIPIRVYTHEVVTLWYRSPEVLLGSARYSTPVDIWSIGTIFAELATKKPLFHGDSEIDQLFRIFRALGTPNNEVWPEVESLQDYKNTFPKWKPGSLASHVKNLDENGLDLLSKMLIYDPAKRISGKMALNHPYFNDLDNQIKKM
# HeLa [17] = test: Inhibition of tubulin polymerization in human HeLa cells assessed as reduction in polymerized tubulin expression at 0.5 uM after 24 hrs by chemiluminescence assay; type: cell-based
# HeLa [18] = test: Induction of microtubule disruption in human HeLa cells assessed as dense microtubule after 6 hrs by DAPI staining based immunofluorescence microscopic analysis; type: cell-based
# HeLa [19] = test: Induction of microtubule disruption in human HeLa cells assessed as round microtubule after 6 hrs by DAPI staining based immunofluorescence microscopic analysis; type: cell-based
# HeLa [20] = test: Induction of apoptosis in human HeLa cells assessed as increase in intracellular reactive oxygen species level after 24 hrs by DCFH-DA staining based laser confocal microscopic analysis; type: functional, cell-based
# HeLa [21] = test: Induction of microtubule disruption in human HeLa cells assessed as nuclear fragmentation after 6 hrs by DAPI staining based immunofluorescence microscopic analysis; type: cell-based
SMILES,IC50 (WI-38),IC50 (HCT-8),IC50 (HeLa [1]),IC50 (A549),IC50 (HepG2),further results
CCCNS(=O)(=O)NC(=O)O[C@H]1c2cc3c(cc2[C@@H](c2cc(OC)c(OC)c(OC)c2)[C@H]2C(=O)OC[C@@H]21)OCO3,63.3 µM,23.2 µM,1.9 µM,9 µM,2.8 µM,–
COc1cc2c(c(OC)c1OC)-c1ccc(OC)c(=O)cc1[C@@H](NC(C)=O)CC2,–,–,–,–,–,Activity (HeLa [2]): Active; Activity (HeLa [3]): Active; Activity (HeLa [4]): Active
COc1cc([C@@H]2c3cc4c(cc3[C@H](OC(=O)NS(=O)(=O)N3CCN(C5CCCC5)CC3)[C@H]3COC(=O)[C@H]23)OCO4)cc(OC)c1OC,47.9 µM,–,57.6 µM,9.8 µM,–,–
COc1cc([C@@H]2c3cc4c(cc3[C@H](OC(=O)NS(=O)(=O)N3CCN(C)CC3)[C@H]3COC(=O)[C@H]23)OCO4)cc(OC)c1OC,86.5 µM,> 100 µM,0.4 µM,5.9 µM,1.5 µM,–
COc1cc([C@@H]2c3cc4c(cc3[C@@H](O[C@@H]3O[C@@H]5CO[C@@H](C)O[C@H]5[C@H](O)[C@H]3O)[C@H]3COC(=O)[C@H]23)OCO4)cc(OC)c1O [ETOPOSIDE],46.9 µM,26.3 µM,24.9 µM,–,13.4 µM,–
COc1cc([C@@H]2c3cc4c(cc3[C@H](OC(=O)NS(=O)(=O)NC3CC3)[C@H]3COC(=O)[C@H]23)OCO4)cc(OC)c1OC,65.3 µM,45 µM,3.9 µM,4.3 µM,8.8 µM,–
COc1cc([C@@H]2c3cc4c(cc3[C@H](OC(=O)NS(=O)(=O)N3CCN(c5ccc([N+](=O)[O-])cc5)CC3)[C@H]3COC(=O)[C@H]23)OCO4)cc(OC)c1OC,77.2 µM,> 100 µM,35.6 µM,13.7 µM,6 µM,–
COc1cc([C@@H]2c3cc4c(cc3[C@H](OC(=O)NS(=O)(=O)N3CCN(c5ccc(F)cc5)CC3)[C@H]3COC(=O)[C@H]23)OCO4)cc(OC)c1OC,44.3 µM,–,7.6 µM,12.2 µM,–,–
COc1cc([C@@H]2c3cc4c(cc3[C@H](OC(=O)NS(=O)(=O)NC3CCN(C)CC3)[C@H]3COC(=O)[C@H]23)OCO4)cc(OC)c1OC,68.7 µM,96 µM,4.1 µM,3.3 µM,15.6 µM,–
COc1cc([C@@H]2c3cc4c(cc3[C@H](OC(=O)NS(=O)(=O)N3CCOCC3)[C@H]3COC(=O)[C@H]23)OCO4)cc(OC)c1OC,109 µM,16.5 µM,0.5 µM,1.5 µM,0.7 µM,Activity (HeLa [5]): Dose-dependent effect; Activity (HeLa [6]): Active; Activity (HeLa [7]): Dose-dependent effect; Activity (HeLa [8]): Dose-dependent effect; Activity (HeLa [9]): Dose-dependent effect; Activity (HeLa [10]): Dose-dependent effect; Activity (HeLa [11]): Dose-dependent effect; inhibition (HeLa [12]): Active; Activity (HeLa [13]): Active; Activity (HeLa [14]): Dose-dependent effect; Activity (HeLa [15]): Dose-dependent effect; Activity [16]: Dose-dependent effect; inhibition (HeLa [17]): Active; Activity (HeLa [18]): Dose-dependent effect; Activity (HeLa [19]): Dose-dependent effect; Activity (HeLa [20]): Dose-dependent effect; Activity (HeLa [21]): Dose-dependent effect
COc1cc([C@@H]2c3cc4c(cc3[C@H](OC(=O)NS(=O)(=O)NC3CCCCC3)[C@H]3COC(=O)[C@H]23)OCO4)cc(OC)c1OC,78.5 µM,20.1 µM,4.6 µM,2.6 µM,3.7 µM,–
CC(=O)O[C@H]1C(=O)[C@@]2(C)[C@H]([C@H](OC(=O)c3ccccc3)[C@]3(O)C[C@H](OC(=O)[C@H](O)[C@@H](NC(=O)c4ccccc4)c4ccccc4)C(C)=C1C3(C)C)[C@]1(OC(C)=O)CO[C@@H]1C[C@@H]2O,–,–,–,–,–,inhibition (HeLa [12]): inactive

# Reference: ChEMBL document CHEMBL4033698, “One-pot synthesis and biological evaluation of N-(aminosulfonyl)-4-podophyllotoxin carbamates as potential anticancer agents” (Bioorg Med Chem Lett, 2017)
